Laboratory results: patent US12492210B2, “Tricyclic compounds and their use” (HUTCHISON MEDIPHARMA LIMITED, priority 2019, dated 2025)

Legend:
MAPK1(ERK2) enzyme = molecular target: T1, MAPK1(ERK2) enzyme (Homo sapiens, UniProt P28482); test: Z-Lyte Kinase Assay of ERK2; type: biochemical; conditions: read-out: Example 18 IC50
T1 construct: purchased Invitrogen PV3313
Summary of the method: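 FRET-based Z-LYTE assay using ERK2 kinase with Ser/Thr3 peptide; compound tested at 0.00046–1 μM final in 2% DMSO. Kinase reaction ran 1 h at 25-30° C, followed by 1 h development. The coumarin/fluorescein emission ratio (445/520 nm) gave % phosphorylation, and IC50 was fitted from inhibition relative to uninhibited control.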

[1] = tested on: p-RSK (Thr359) in colo205 cells; test: p-RSK (Thr359) Acumen Assay in Colo205; type: cell-based; conditions: Homo sapiens, COLO 205, 1 hour compound incubation, read-out: Example 19 IC50
Summary of the method: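 Colo205 cells (4000/well, seeded overnight in 10% FBS) were exposed 1 hour at 37° C to compound added from a 3–0.001 μM dilution series in 5% DMSO. Cells were then fixed, permeabilised and immunostained for p-RSK Thr359, with PI counterstain. Acumen cytometry gave the percentage of positive cells, normalised to untreated wells and 3 uM GDC0994 wells, for the IC50 fit.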

T1 sequence (P28482 whole entry): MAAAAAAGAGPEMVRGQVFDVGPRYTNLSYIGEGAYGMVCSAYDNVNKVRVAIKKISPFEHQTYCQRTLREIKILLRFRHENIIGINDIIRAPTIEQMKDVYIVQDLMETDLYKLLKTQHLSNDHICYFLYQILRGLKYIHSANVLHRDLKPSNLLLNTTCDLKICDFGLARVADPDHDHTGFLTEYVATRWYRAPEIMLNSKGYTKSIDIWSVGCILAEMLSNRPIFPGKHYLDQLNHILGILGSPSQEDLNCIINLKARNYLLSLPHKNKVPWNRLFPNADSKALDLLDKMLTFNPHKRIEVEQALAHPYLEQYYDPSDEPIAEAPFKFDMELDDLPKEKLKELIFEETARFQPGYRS

SMILES | IC50 (MAPK1(ERK2) enzyme) | IC50 [1]
Cc1cnc(Nc2ccnn2C)cc1-c1cc2n(c1)CC1(CCC1)n1c-2nnc1C(F)(F)C(F)F [Compound 242] | 5 to 10 nM | > 100 nM
C[C@H](Oc1ccccc1F)c1nnc2c3cc(-c4ccnc(Nc5ccnn5C)n4)cn3ccn12 [Compound 39, (S)-4-(3-(1-(2-fluorophenoxy)ethyl)pyrrolo[1,2-a][1,2,4]triazolo[3,4-c]pyrazin-9-yl)-N-(1-methyl-1H-pyrazol-5-yl)pyrimidin-2-amine] | 5 to 10 nM | ≤ 100 nM
Cc1cnc(Nc2ccnn2C)cc1-c1cc2n(c1)CCn1c-2nnc1C(F)(F)c1ccccc1Cl [Compound 90] | 5 to 10 nM | ≤ 100 nM
Cc1cnc(Nc2ccnn2C)cc1-c1cc2n(c1)C[C@H](C)n1c-2nnc1C(F)(F)c1ccccc1F [Compound 83] | > 10 nM | ≤ 100 nM
Cn1nccc1Nc1cc(-c2cc3n(c2)CCCn2c(Nc4ccccc4F)nnc2-3)c(Cl)cn1 [Compound 43] | 5 to 10 nM | ≤ 100 nM
Cc1cc(Nc2ncc(C)c(-c3cc4n(c3)C[C@H](C)n3c-4nnc3C(F)(F)c3ccccc3F)n2)n(C)n1 [Compound 288] | > 10 nM | ≤ 100 nM
Cn1nccc1Nc1cc(-c2cc3n(c2)C[C@H](CF)n2c-3nnc2C(F)(F)c2ccccc2)c(Cl)cn1 [Compound 137] | > 10 nM | ≤ 100 nM
Cc1cnc(Nc2ccnn2C)nc1-c1cc2n(c1)CCn1c-2nnc1C1(C(F)(F)F)CCC1 [Compound 5] | ≤ 5 nM | > 100 nM
Cc1cnc(Nc2ccnn2C)cc1-c1cc2n(c1)CCn1c-2nnc1C(F)(F)c1ccccc1F [Compound 68] | 5 to 10 nM | > 100 nM
Cc1cnccc1Nc1ncc(C)c(-c2cc3n(c2)CCCn2c-3nnc2C2(C(F)(F)F)CCC2)n1 [Compound 286] | 5 to 10 nM | ≤ 100 nM
Cc1cnc(Nc2ccnn2C)cc1-c1cc2n(c1)CC(C)Cn1c-2nnc1C(F)(F)C(F)F (stereo not drawn) [Compound 60] | ≤ 5 nM | ≤ 100 nM
COC[C@H]1Cn2cc(-c3cc(Nc4ccnn4C)ncc3C)cc2-c2nnc(C(F)(F)c3ccccc3F)n21 [Compound 303] | 5 to 10 nM | > 100 nM
Cc1cnc(Nc2ccnn2C)cc1-c1cc2n(c1)C[C@H](CF)n1c-2nnc1C(F)(F)c1cc(F)cc(F)c1 [Compound 182] | 5 to 10 nM | > 100 nM
Cn1nccc1Nc1cc(-c2cc3n(c2)C[C@@H](O)Cn2c-3nnc2C2(C(F)(F)F)CCC2)c(Cl)cn1 [Compound 216] | ≤ 5 nM | ≤ 100 nM
Cn1nccc1Nc1cc(-c2cc3n(c2)CC(C)(C)n2c-3nnc2C(F)(F)C(F)F)c(Cl)cn1 [Compound 249] | 5 to 10 nM | ≤ 100 nM
COC[C@H]1Cn2cc(-c3cc(Nc4ccnn4C)ncc3Cl)cc2-c2nnc(C(F)(F)C(F)F)n21 [Compound 301] | ≤ 5 nM | > 100 nM
Cc1cnc(Nc2ccnn2C)cc1-c1cc2n(c1)CC(F)(F)Cn1c-2nnc1C1(C(F)(F)F)CC1 [Compound 87] | ≤ 5 nM | ≤ 100 nM
Cc1cc(C(F)(F)c2nnc3n2[C@@H](CF)Cn2cc(-c4cc(Nc5ccnn5C)ncc4C)cc2-3)on1 [Compound 99] | ≤ 5 nM | > 100 nM
Cc1cnc(Nc2ccnn2C)cc1-c1cc2n(c1)C[C@H](CF)n1c-2nnc1C(F)(F)c1ccc(F)cc1 [Compound 128] | 5 to 10 nM | ≤ 100 nM
Cc1cnc(Nc2ccnn2C)nc1-c1cc2n(c1)C[C@H](C)n1c-2nnc1C(F)(F)c1cc(F)ccc1F [Compound 134] | 5 to 10 nM | ≤ 100 nM

SMILES | IC50 (MAPK1(ERK2) enzyme) | IC50 [1]
Cn1nccc1Nc1cc(-c2cc3n(c2)C(C(F)(F)F)Cn2c-3nnc2C(F)(F)C(F)F)c(Cl)cn1 (stereo not drawn) [Compound 270] | > 10 nM | ≤ 100 nM
Cn1nccc1Nc1cc(-c2cc3n(c2)C[C@H](O)Cn2c-3nnc2C2(C(F)(F)F)CCC2)c(Cl)cn1 [Compound 215, (S)-10-(5-chloro-2-((1-methyl-1H-pyrazol-5-yl)amino)pyridin-4-yl)-3-(1-(trifluoromethyl)cyclobutyl)-6,7-dihydro-5H-pyrrolo[1,2-a][1,2,4]triazolo[3,4-c][1,4]diazepin-6-ol] | ≤ 5 nM | ≤ 100 nM
Cn1nccc1Nc1cc(-c2cc3n(c2)C[C@H](F)Cn2c-3nnc2C(F)(F)C(F)F)c(Cl)cn1 [Compound 80] | ≤ 5 nM | ≤ 100 nM
Cc1cnc(Nc2ccnn2C)cc1-c1cc2n(c1)C[C@H](CF)n1c-2nnc1C(F)(F)Oc1ccccc1F [Compound 170] | > 10 nM | > 100 nM
Cn1nccc1Nc1cc(-c2cc3n(c2)C[C@H](CF)n2c(Cc4ccccc4F)nnc2-3)c(Cl)cn1 [Compound 92] | 5 to 10 nM | ≤ 100 nM
Cn1nccc1Nc1cc(-c2cc3n(c2)CCCn2c-3nnc2C2(C(F)F)CC2)c(Cl)cn1 [Compound 59] | ≤ 5 nM | ≤ 100 nM
Cc1cnc(Nc2ccnn2C)nc1-c1cn2c(n1)-c1nnc(C(F)(F)c3ccccc3Cl)n1[C@H](C)C2 [Compound 221] | ≤ 5 nM | ≤ 100 nM
Cc1nonc1Cc1nnc2n1CCCn1cc(-c3cc(Nc4ccnn4C)ncc3Cl)cc1-2 [Compound 10] | ≤ 5 nM | > 100 nM
Cc1cnc(Nc2ccnn2C)cc1-c1cc2n(c1)C[C@H](CF)n1c-2nnc1C(F)(F)n1ccc(F)n1 [Compound 104] | ≤ 5 nM | ≤ 100 nM
Cn1nccc1Nc1cc(-c2cc3n(c2)C[C@@H](F)Cn2c-3nnc2C2(C(F)(F)F)CCC2)c(Cl)cn1 [Compound 122] | ≤ 5 nM | ≤ 100 nM
Cc1cnc(Nc2ccnn2C)nc1-c1cc2n(c1)CCn1c(COc3ccccc3F)nnc1-2 [Compound 7] | ≤ 5 nM | ≤ 100 nM
Cc1cnc(Nc2ccnn2C)cc1-c1cc2n(c1)CC1(CC1)Cn1c-2nnc1C(F)(F)C(F)(F)F [Compound 84] | 5 to 10 nM | > 100 nM
Cn1nccc1Nc1cc(-c2cc3n(c2)C[C@H](CF)n2c-3nnc2C(F)(F)c2ccccn2)c(Cl)cn1 [Compound 141] | ≤ 5 nM | ≤ 100 nM
Cn1nccc1Nc1cc(-c2cc3n(c2)CC(F)(F)Cn2c-3nnc2C2(C(F)F)CCC2)c(Cl)cn1 [Compound 266] | ≤ 5 nM | ≤ 100 nM
C[C@H]1Cn2cc(-c3nc(Nc4ccnn4C)ncc3F)cc2-c2nnc(C(F)(F)c3ccccc3F)n21 [Compound 97] | 5 to 10 nM | ≤ 100 nM
Cn1nccc1Nc1cc(-c2cc3n(c2)CC(F)(F)Cn2c(Cn4ccc(F)c4C#N)nnc2-3)c(Cl)cn1 [Compound 218] | 5 to 10 nM | ≤ 100 nM
Cn1nccc1Nc1cc(-c2cc3n(c2)C[C@H](CF)n2c-3nnc2C(F)(F)C(F)F)c(F)cn1 [Compound 63] | ≤ 5 nM | ≤ 100 nM
COCC1Cn2cc(-c3cc(Nc4ccnn4C)ncc3Cl)cc2-c2nnc(C3(C(F)(F)F)CCC3)n2C1 (stereo not drawn) [Compound 300, 5-chloro-4-(6-(methoxymethyl)-3-(1-(trifluoromethyl)cyclobutyl)-6,7-dihydro-5H-pyrrolo[1,2-a][1,2,4]triazolo[3,4-c][1,4]diazepin-10-yl)-N-(1-methyl-1H-pyrazol-5-yl)pyridin-2-amine] | 5 to 10 nM | ≤ 100 nM
Cc1cc(Nc2ncc(C)c(-c3cc4n(c3)CCCn3c-4nnc3C3(C(F)(F)F)CCC3)n2)on1 [Compound 284] | ≤ 5 nM | > 100 nM
